Measured values reported in ChEMBL document CHEMBL1201862, “PubChem BioAssay data set” (2004).
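Growth conditions: 96-well plates. Treatment: test compound, 48 hours, 5 concentrations. Analysis: linear interpolation between bracketing concentrations; unreached endpoints set to highest concentration. GI50 is the concentration that inhibits growth by half.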 Calls of active or inactive are those of the source. Cut-off read from the data, not from the text of the source: active = GI50 up to about 1.1 µM and inactive = higher.

Key:
Assay in all cases: growth of human tumour cells (NCI), 48 h
NCI-H460 = system: NCI-H460
T47D = system: T47D
ACHN = system: ACHN
HOP-92 = system: HOP-92
UACC-257 = system: UACC-257
U-251 = system: U-251
SK-MEL-2 = system: SK-MEL-2
IGROV-1 = system: IGROV-1
SF-539 = system: SF-539
MDA-MB-435 = system: MDA-MB-435
SK-OV-3 = system: SK-OV-3
SF-268 = system: SF-268
UACC-62 = system: UACC-62
MDA-MB-231 = system: MDA-MB-231
PC-3 = system: PC-3

Row | Compound | GI50 (NCI-H460) | GI50 (T47D) | GI50 (ACHN) | GI50 (HOP-92) | GI50 (UACC-257) | GI50 (U-251) | GI50 (SK-MEL-2) | GI50 (IGROV-1) | GI50 (SF-539) | GI50 (MDA-MB-435) | GI50 (SK-OV-3) | GI50 (SF-268) | GI50 (UACC-62) | GI50 (MDA-MB-231) | GI50 (PC-3)
1 | Oc1ccc(/C=N/c2ccccc2O)cc1 | 38.9 µM (inactive) | 73.5 µM (inactive) | 60.7 µM (inactive) | > 100 µM (inactive) | 22.3 µM (inactive) | 31.3 µM (inactive) | 21.9 µM (inactive) | 54.7 µM (inactive) | 71.3 µM (inactive) | 16.9 µM (inactive) | > 100 µM (inactive) | 96.6 µM (inactive) | 37.5 µM (inactive) | 51.1 µM (inactive) | 34.1 µM (inactive)
2 | c1ccc(SC(Sc2ccccc2)c2ccc3c(c2)OCO3)cc1 | > 100 µM (inactive) | > 100 µM (inactive) | > 100 µM (inactive) | 16.3 µM (inactive) | > 100 µM (inactive) | > 100 µM (inactive) | > 100 µM (inactive) | > 100 µM (inactive) |  | > 100 µM (inactive) |  | 93.1 µM (inactive) | > 100 µM (inactive) | > 100 µM (inactive) | > 100 µM (inactive)
3 | Cc1ccc2c(c1)C(=O)C1(C2)Cc2ccc(C)cc2C1=O | > 100 µM (inactive) | > 100 µM (inactive) | > 100 µM (inactive) | > 100 µM (inactive) | > 100 µM (inactive) | 71.8 µM (inactive) | 87.3 µM (inactive) | > 100 µM (inactive) | > 100 µM (inactive) | > 100 µM (inactive) | > 100 µM (inactive) | > 100 µM (inactive) |  | > 100 µM (inactive) | > 100 µM (inactive)
4 | COc1cc(OC)cc(Oc2nc3ccc(C(F)(F)F)cc3nc2-c2ccccc2)c1 | > 100 µM (inactive) | 28.4 µM (inactive) | > 100 µM (inactive) | > 100 µM (inactive) | > 100 µM (inactive) | > 100 µM (inactive) |  | > 100 µM (inactive) | > 100 µM (inactive) | > 100 µM (inactive) | > 100 µM (inactive) | > 100 µM (inactive) | > 100 µM (inactive) | > 100 µM (inactive) | > 100 µM (inactive)
5 | CCCNC(=O)OCc1c(COC(=O)NCCC)c(-c2ccc(Cl)c(Cl)c2)n2c1CCC2 | 3.57 µM (inactive) | 11.4 µM (inactive) | 2.01 µM (inactive) | 2.52 µM (inactive) | 4.79 µM (inactive) | 4.98 µM (inactive) |  | 1.05 µM (active) | 3 µM (inactive) | 11.5 µM (inactive) | 2.81 µM (inactive) | 4.33 µM (inactive) | 2.8 µM (inactive) | 4.84 µM (inactive) | 8.59 µM (inactive)
6 | COc1c(CCl)cc(-c2cc(=O)c3ccccc3s2)cc1CCl | 22.9 µM (inactive) | 1.66 µM (inactive) | 45.2 µM (inactive) | 0.0449 µM (active) | > 100 µM (inactive) | 18.8 µM (inactive) | 10.1 µM (inactive) | 2.51 µM (inactive) | 6.55 µM (inactive) | > 100 µM (inactive) | 27.3 µM (inactive) | 9.23 µM (inactive) | 4.99 µM (inactive) | 2.76 µM (inactive) | > 100 µM (inactive)
7 | CC(C)(C)O/N=C/c1cc(NC(=S)c2ccsc2)ccc1Cl |  | 4.01 µM (inactive) |  | 19.1 µM (inactive) | 12.6 µM (inactive) | 15.7 µM (inactive) | 16 µM (inactive) | 16.7 µM (inactive) | 18 µM (inactive) | 14.6 µM (inactive) | 18.7 µM (inactive) | 16 µM (inactive) | 15.5 µM (inactive) | 16.4 µM (inactive) | 13 µM (inactive)
8 | C/C(=N/NC(=S)Nc1ccc([N+](=O)[O-])cc1)c1cccc(/C(C)=N\NC(=S)Nc2ccc([N+](=O)[O-])cc2)n1 | 0.34 µM (active) | 2.16 µM (inactive) | 0.126 µM (active) | 0.782 µM (active) | 1.09 µM (active) | 0.547 µM (active) | 3.99 µM (inactive) | 0.569 µM (active) | 0.458 µM (active) | 0.931 µM (active) | 2.13 µM (inactive) |  | 0.493 µM (active) | 0.56 µM (active) | 0.6 µM (active)
9 | c1ccc(-c2ccc(-c3ccc(C4=NCCN4)cc3)o2)cc1 | 2.4 µM (inactive) | 2.65 µM (inactive) | 2.95 µM (inactive) | 2.17 µM (inactive) | 2.15 µM (inactive) | 1.92 µM (inactive) | 1.87 µM (inactive) | 2.74 µM (inactive) | 2.11 µM (inactive) | 1.97 µM (inactive) | 5.36 µM (inactive) | 2.8 µM (inactive) | 1.77 µM (inactive) | 2 µM (inactive) | 2.23 µM (inactive)
10 | COc1ccc(N2C(=O)C(Cl)C2c2cc3cc(Br)ccc3nc2Cl)cc1 (stereo not given) | 5.33 µM (inactive) | 15.1 µM (inactive) | 4.89 µM (inactive) | 8.38 µM (inactive) | 5.2 µM (inactive) |  | 5.12 µM (inactive) | 5.12 µM (inactive) | 5.07 µM (inactive) | 4.71 µM (inactive) | 16.6 µM (inactive) | 6.38 µM (inactive) | 4.37 µM (inactive) | 4.57 µM (inactive) | 7.13 µM (inactive)
11 | CC(=O)Oc1cc(/C=C/c2ccc(O)cc2)cc(OC(C)=O)c1 | 33.9 µM (inactive) | 51.3 µM (inactive) | 9.59 µM (inactive) | 25 µM (inactive) | 30.9 µM (inactive) | 29.9 µM (inactive) | 63.5 µM (inactive) | 64.9 µM (inactive) | 12.8 µM (inactive) | 28.1 µM (inactive) | > 100 µM (inactive) | 43.2 µM (inactive) | 18.2 µM (inactive) | 25.5 µM (inactive) | 21.5 µM (inactive)
12 | Cc1nnc2nc(-c3ccc(Cl)cc3Cl)cc(-c3ccc(Cl)cc3)n12 | 82.6 µM (inactive) | 89.1 µM (inactive) | > 100 µM (inactive) | 1.47 µM (inactive) | > 100 µM (inactive) | > 100 µM (inactive) |  |  | > 100 µM (inactive) | > 100 µM (inactive) | > 100 µM (inactive) | 83.9 µM (inactive) | > 100 µM (inactive) | 47.5 µM (inactive) | 57.8 µM (inactive)
13 | OC1(C(O)(c2ccc(-c3ccccc3)cc2)c2ccc(-c3ccccc3)cc2)CCCCC1 | 44 µM (inactive) | > 100 µM (inactive) | > 100 µM (inactive) | > 100 µM (inactive) | > 100 µM (inactive) | > 100 µM (inactive) | > 100 µM (inactive) | > 100 µM (inactive) | > 100 µM (inactive) | > 100 µM (inactive) | > 100 µM (inactive) | > 100 µM (inactive) | > 100 µM (inactive) | > 100 µM (inactive) | > 100 µM (inactive)
14 | CC(NO)/C(=N/O)c1ccco1 (stereo not given) | > 10 µM (inactive) | > 10 µM (inactive) | > 10 µM (inactive) | > 10 µM (inactive) | > 10 µM (inactive) | > 10 µM (inactive) | > 10 µM (inactive) |  |  | > 10 µM (inactive) |  | > 10 µM (inactive) |  | > 10 µM (inactive) | > 10 µM (inactive)
15 | O=C(CCc1cccc(O)c1)NCCCNC(=O)CCc1cccc(O)c1 | > 100 µM (inactive) | > 100 µM (inactive) | > 100 µM (inactive) | 50.9 µM (inactive) | > 100 µM (inactive) | > 100 µM (inactive) | > 100 µM (inactive) | > 100 µM (inactive) | > 100 µM (inactive) | > 100 µM (inactive) | > 100 µM (inactive) | > 100 µM (inactive) | > 100 µM (inactive) | > 100 µM (inactive) | > 100 µM (inactive)
16 | COc1cc(C/C=C/c2ccccc2)c(OC)cc1O [VIOLASTYRENE] | 20.3 µM (inactive) | 17.4 µM (inactive) | 23.6 µM (inactive) | 15.4 µM (inactive) | 29.4 µM (inactive) | 18.7 µM (inactive) | 23.2 µM (inactive) | 18.3 µM (inactive) | 17.9 µM (inactive) | 18.5 µM (inactive) |  | 25.9 µM (inactive) | 16.8 µM (inactive) | 15.1 µM (inactive) | 21.6 µM (inactive)
17 | C/C=C(/C)C(=O)OC1CC(C)[C@H]2CC(=O)C(C)=C2CC1C(C)(C)OC(C)=O (stereo not given in full) | 19.3 µM (inactive) | 15.4 µM (inactive) | 35.6 µM (inactive) | 19.6 µM (inactive) | 20.9 µM (inactive) | 38.1 µM (inactive) | 3.95 µM (inactive) | 53.8 µM (inactive) | 20.7 µM (inactive) | 28 µM (inactive) |  | 58.2 µM (inactive) | 21.8 µM (inactive) | 31.7 µM (inactive) | 31.3 µM (inactive)
18 | CCOC(=O)c1c(-c2ccc(OC)cc2)c(C#N)c(=S)n(C2OC(COC(C)=O)C(OC(C)=O)C(OC(C)=O)C2OC(C)=O)c1C (stereo not given) | > 100 µM (inactive) | 47.6 µM (inactive) | 58.2 µM (inactive) | 4.32 µM (inactive) | > 100 µM (inactive) | > 100 µM (inactive) |  | > 100 µM (inactive) | > 100 µM (inactive) | > 100 µM (inactive) | > 100 µM (inactive) | > 100 µM (inactive) | 44.5 µM (inactive) | > 100 µM (inactive) | 30.8 µM (inactive)
19 | CCCCCCCCCCCCCCCCCc1nc(Cl)nc(Cl)c1Cl | > 100 µM (inactive) | > 100 µM (inactive) | > 100 µM (inactive) | > 100 µM (inactive) |  | > 100 µM (inactive) |  | > 100 µM (inactive) | > 100 µM (inactive) | > 100 µM (inactive) | > 100 µM (inactive) | > 100 µM (inactive) | > 100 µM (inactive) | > 100 µM (inactive) | 38.1 µM (inactive)
